Data from patent US20180015051A1, “MODULATORS OF ALPHA-DICARBONYL DETOXIFICATION AND THEIR USE FOR THE TREATMENT OF DIABETIC PATHOLOGIES” (Buck Institute for Research on Aging, priority 2016, published 2018).

How the values were obtained:
C. elegans = assay: Lifespan assay (survival curves); format: in vivo, Caenorhabditis elegans; conditions: for Lifespan / early mortality (survival curves): glod-4 mutant animals, PA, LA, or UMP (20 pM) vs EtOH control
Protocol: Life span assays were performed in Thermo Scientific Precision incubators at 20° C. After alkaline hypochlorite treatment, synchronized L1 animals were either placed onto NGM plates seeded with 5× concentrated E. coli OP50-1 (cultured on Lysogeny Broth/LB overnight) or on RNAi plates supplemented with 20×HT1115 RNAi bacteria. Post-L4 stage of development, all lifespan assays were performed using FUdR (5-fluoro-2 deoxyuridine) plates to inhibit development and growth of progeny. Every two days, animals were transferred on to new 60 mm NGM or RNAi plates freshly seeded with OP50-1 or HT1115 bacteria (with or without drug), respectively. 90-120 animals were considered for each lifespan experiment. Animal viability was assessed visually or with gentle prodding on the head. Animals were censored in the event of internal hatching of the larvae, body rupture, or crawling of larvae from the plates.

SKN-1/Nrf2 = assay: SKN-1 activation assay (GFP reporters for SKN-1, gst-4, gcs-1; qPCR); format: in vivo, Caenorhabditis elegans; conditions: for Expression of gst-4 (GFP foci) under trpa-1 knockdown: glod-4;gst-4p::gfp animals, PA or LA (20 pM); for SKN-1 activation (GFP foci in gst-4p::gfp): gst-4p::gfp animals on EV or glod-4 RNAi, PA, LA, or UMP (20 pM)
Protocol: Adult animals were examined for SKN-1/Nrf2 activation using GFP reporters for both SKN-1 and SKN-1 target genes: gst-4 and gcs-1. For exogenous MGO and drug assays, age-synchronized GFP reporter strains were subject to control and treatment conditions for a period of 4-6 hours before microscopy. For RNAi-induced activation studies, GFP reporter strains were fed on HT1115 bacteria expressing empty vector pL4440 or RNAi gene from L1 stage. Synchronized day 1 adult animals were then subjected to microscopic examination. Activation of SKN-1 using SKN-1 fusion reporter was determined as described earlier (An et al. (2003) Genes & Dev. 17: 1882-1893; Onken and Driscoll (2010) PloS One, 5: e8758). Scoring for downstream SKN-1 targets carrying GFP reporter for gcs-1 promoter was performed based on a previous study (Wang et al. (2010) PLoS Genetics, doi. org/10.1371/journal.pgen.1001048) and categorized as follows: ‘high’ for strong GFP signal throughout the intestine, ‘medium’ for GFP signal in the anterior or posterior section of the intestine and ‘low’ for weak or no signal. For animals with gst-4 promoters carrying GFP reporters number of GST-4 positive foci was counted under different conditions as described previously (Fensgardet al. (2010) Aging, 2: 133-159). Quantification of acquired images was done using the Image J™ software (//imagej.nih.gov/ij/).
Total RNA was extracted from nearly 100 age-synchronized adult animals picked and collected in 20 pl of M9 buffer using TRIzol reagent (Life Technologies, CA). Subsequently, 1 pg total RNA was used as template for cDNA synthesis. cDNA was synthesized using the ISCRIPT™ cDNA synthesis kit (Bio-Rad, CA) following manufacturer's protocol. qRT-PCR was carried out using the SensiFAST SYBR No-ROX kit (Bioline, MA) in a LightCycler 480 Real-Time PCR system (Roche Diagnostics Corp., IN). Quantification was performed using the comparative AACt method and normalization for internal reference was done using actin gene act-1.

TRPA-1 = target: T1, TRPA-1 (Caenorhabditis elegans, UniProt Q18297); assay: Ca2+ flux-based channel study in C. elegans (intestinal GCaMP1.3), wild-type TRPA-1; format: in vivo; conditions: for Ca2+ flux (percentage change in peak GCaMP1.3 fluorescence intensity): wild-type TRPA-1, PA or LA (20 pM)
T1 construct: TQ3056: XuIs180[plfe2b::GCaMP1.3+plfe-2b::dsred];N2; endogenous in cells; host or cells: whole C. elegans animals, N2 background with intestinal GCaMP1.3 (strain TQ3056)
T1 sequence (Q18297 1-1211): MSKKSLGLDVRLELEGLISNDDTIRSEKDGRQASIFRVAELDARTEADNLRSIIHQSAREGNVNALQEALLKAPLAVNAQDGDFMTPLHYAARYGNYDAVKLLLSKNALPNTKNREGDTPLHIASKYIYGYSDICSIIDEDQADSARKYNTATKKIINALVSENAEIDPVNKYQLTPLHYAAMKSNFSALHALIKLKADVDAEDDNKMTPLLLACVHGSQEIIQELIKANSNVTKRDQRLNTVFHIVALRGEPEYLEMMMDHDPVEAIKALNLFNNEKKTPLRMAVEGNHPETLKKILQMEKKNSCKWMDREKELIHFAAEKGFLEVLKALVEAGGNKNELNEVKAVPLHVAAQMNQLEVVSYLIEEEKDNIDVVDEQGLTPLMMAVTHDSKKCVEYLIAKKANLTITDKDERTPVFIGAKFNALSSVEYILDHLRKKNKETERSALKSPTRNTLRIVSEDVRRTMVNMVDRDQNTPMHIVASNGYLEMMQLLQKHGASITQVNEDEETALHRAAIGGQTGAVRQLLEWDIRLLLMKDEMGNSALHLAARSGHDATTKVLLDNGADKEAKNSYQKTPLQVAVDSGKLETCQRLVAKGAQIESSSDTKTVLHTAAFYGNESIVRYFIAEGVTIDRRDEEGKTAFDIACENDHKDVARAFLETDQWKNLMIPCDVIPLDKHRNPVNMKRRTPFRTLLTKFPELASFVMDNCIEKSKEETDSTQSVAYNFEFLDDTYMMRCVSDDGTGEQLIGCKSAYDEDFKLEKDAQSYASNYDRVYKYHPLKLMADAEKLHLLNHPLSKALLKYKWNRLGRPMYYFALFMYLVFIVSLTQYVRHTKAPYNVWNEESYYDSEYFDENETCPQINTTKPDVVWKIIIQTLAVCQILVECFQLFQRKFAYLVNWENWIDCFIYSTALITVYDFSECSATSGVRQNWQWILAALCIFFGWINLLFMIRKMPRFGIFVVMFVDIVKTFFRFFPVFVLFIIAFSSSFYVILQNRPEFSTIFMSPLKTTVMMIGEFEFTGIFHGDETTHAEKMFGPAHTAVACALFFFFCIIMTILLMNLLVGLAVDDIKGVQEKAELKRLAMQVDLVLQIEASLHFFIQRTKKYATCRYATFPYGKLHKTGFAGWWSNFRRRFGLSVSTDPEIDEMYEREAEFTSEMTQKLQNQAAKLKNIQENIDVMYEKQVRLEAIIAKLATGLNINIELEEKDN
Protocol: (§1) Ca^2+ flux was measured using an upright Olympus compound microscope (BX51) under a 40× objective. Real time sequential G-CaMP1.3 fluorescent images were captured using Hamamatsu Ocra-ER digital CCD camera at a frame rate of 10 frames per second and for a span of 300 frames. Acquired images were analyzed for further intensity measurements using HC Image software v. 1.1.3.0 (Hamamatsu Corp., NJ). Percentage change in fluorescent peak intensity was estimated using the intensity values generated real time by the program.

[1] = target: T2, TRPA-1^E1018A (Ca^2+ impermeable) mutant channel (Caenorhabditis elegans, UniProt Q18297, E1018A); assay: Ca2+ flux-based channel study in C. elegans (intestinal GCaMP1.3), TRPA-1^E1018A mutant channel; format: in vivo; conditions: Ca^+2-impermeable TRPA-1^E1018A channel; for Ca2+ flux (percentage change in peak GCaMP1.3 fluorescence intensity): PA or LA (20 pM)
T2 construct: expressed in transfected cells; host or cells: transgenic C. elegans (strain TQ2772), ges-1 promoter (intestine), trpa-1(ok999) background, with GCaMP1.3
Protocol: as §1

T2 sequence (Q18297 whole entry E1018A): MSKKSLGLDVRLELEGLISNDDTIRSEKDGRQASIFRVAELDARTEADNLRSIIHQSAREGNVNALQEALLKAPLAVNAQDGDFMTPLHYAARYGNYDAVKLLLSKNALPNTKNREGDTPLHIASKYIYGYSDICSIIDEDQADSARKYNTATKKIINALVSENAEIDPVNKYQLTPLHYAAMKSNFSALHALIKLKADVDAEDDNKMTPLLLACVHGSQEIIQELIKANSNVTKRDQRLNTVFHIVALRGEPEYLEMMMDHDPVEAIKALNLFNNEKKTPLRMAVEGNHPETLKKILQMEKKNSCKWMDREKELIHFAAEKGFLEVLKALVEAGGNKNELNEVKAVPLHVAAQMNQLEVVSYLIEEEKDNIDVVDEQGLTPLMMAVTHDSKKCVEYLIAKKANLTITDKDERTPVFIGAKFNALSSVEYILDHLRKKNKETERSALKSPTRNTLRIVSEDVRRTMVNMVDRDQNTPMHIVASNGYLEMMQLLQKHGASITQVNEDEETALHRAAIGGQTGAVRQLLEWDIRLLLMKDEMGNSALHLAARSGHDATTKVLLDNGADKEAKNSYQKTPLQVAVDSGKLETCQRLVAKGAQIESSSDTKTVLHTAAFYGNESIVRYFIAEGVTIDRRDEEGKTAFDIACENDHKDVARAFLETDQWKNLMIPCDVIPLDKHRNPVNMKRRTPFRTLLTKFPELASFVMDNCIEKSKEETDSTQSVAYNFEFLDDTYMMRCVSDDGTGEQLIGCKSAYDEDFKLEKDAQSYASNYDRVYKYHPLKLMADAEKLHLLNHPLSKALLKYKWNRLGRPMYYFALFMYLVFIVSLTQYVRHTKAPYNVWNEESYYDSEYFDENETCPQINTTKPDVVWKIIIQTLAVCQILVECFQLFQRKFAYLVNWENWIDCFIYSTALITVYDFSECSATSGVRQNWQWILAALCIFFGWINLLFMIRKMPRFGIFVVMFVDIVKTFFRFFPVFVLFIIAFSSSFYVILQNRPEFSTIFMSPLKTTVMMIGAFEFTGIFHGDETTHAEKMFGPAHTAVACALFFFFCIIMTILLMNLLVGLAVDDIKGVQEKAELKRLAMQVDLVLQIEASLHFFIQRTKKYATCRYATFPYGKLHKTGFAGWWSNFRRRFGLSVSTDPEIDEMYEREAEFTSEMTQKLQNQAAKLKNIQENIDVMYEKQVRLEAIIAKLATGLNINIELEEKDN

Structure (SMILES) | Lifespan / early mortality (survival curves) (C. elegans) | Expression of gst-4 (GFP foci) under trpa-1 knockdown (SKN-1/Nrf2; trpa-1 RNAi) | SKN-1 activation (GFP foci in gst-4p::gfp) (SKN-1/Nrf2) | Ca2+ flux (percentage change in peak GCaMP1.3 fluorescence intensity) (TRPA-1) | Ca2+ flux (percentage change in peak GCaMP1.3 fluorescence intensity) [1] | Lifespan (survival curves) (C. elegans; N2 animals, 7 mM MGO vs water) | SKN-1 nuclear localization (SKN-1::GFP) (SKN-1/Nrf2; 7 mM MGO vs water) | Expression of SKN-1 reporters gst-4 and gcs-1 on trpa-1 knockdown (SKN-1/Nrf2; MGO-treated wild-type animals, 7 mM MGO, trpa-1 RNAi) | SKN-1/Nrf2 activation (gst-4 and gcs-1, GFP reporter and RT-PCR) (SKN-1/Nrf2; exogenous MGO treatment, 7 mM vs water) | Ca2+ response (G-CaMP1.3 sensor) (TRPA-1; functional (wild-type) TRPA-1 channel, 7 mM MGO vs water) | Ca2+ response (G-CaMP1.3 sensor) ([1]; 7 mM MGO)
O=C(O)CCCCC1CCSS1 (stereo not shown) [LA, a-lipoic acid] | performed similar to PA | significantly reduced to wild-type levels | SKN-1 activation was observed | robust Ca+^2 flux | significantly reduced | – | – | – | – | – | –
CC(=O)C=O [MGO, methylglyoxal] | – | – | – | – | – | early mortality | undergo nuclear localization | significantly reduced | significant SKN-1/Nrf2 activation | robust Ca^2+ response | basal responses
C[C@]1(C(=O)O)CCC[C@]2(C)c3cc(O)ccc3CC[C@@H]12 [PA, podocarpic acid] | able to prevent | significantly reduced to wild-type levels | activates SKN-1 | robust Ca+^2 flux | significantly reduced | – | – | – | – | – | –
